Data taken from patent US20230032216A1, “INTERLEUKIN-4-INDUCED GENE 1 (IL4I1) AND RESPECTIVE METABOLITES AS BIOMARKERS FOR CANCER” (DEUTSCHES KREBSFORSCHUNGSZENTRUM STIFTUNG DES ÖFFENTLICHEN …, priority 2019, published 2023).
Values belong to the compound of their own block, whether it stands above or below them.

How the values were obtained:
[1] = Conversion of I3P to KynA under cell-free conditions; type: physicochemical
[2] = test system: advanced melanoma; settings: epacadostat in combination with the anti-PD-1 mAb pembrolizumab, advanced melanoma (Long et al., 2019); cited from earlier work
[3] = test system: advanced melanoma; assay: RNA-seq of advanced melanoma patients before and on nivolumab treatment (Riaz et al., GSE91061); type: in vivo, human
From the text: RNA-seq datasets-Raw counts and metadata were downloaded from GEO using GEOquery (Davis and Meltzer, 2007). The harmonized HT-Seq counts and Fragments Per Kilobase of transcript per Million mapped reads (FPKM) of TCGA datasets were downloaded using TCGAbiolinks (Colaprico et al., 2016) from Genomic Data Commons (GDC) (https://gdc.cancer.gov/), and only patients with the identifier “primary tumor” were retained, with the exception of melanoma that was split into datasets for primary and metastatic cohorts. The FPKM values were converted to transcripts per million (TPMs) (Li and Dewey, 2011). TPM data of normal tissues were downloaded from the Genotype-Tissue Expression (GTEx) dataset (https://gtexportal.org/home/). All TPM values were log 2 transformed. Raw counts of the Riaz et al. […] (Riaz et al., 2017) advanced melanoma dataset were downloaded from https://github.com/riazn/bms038_analysis, and based on principle component analysis one outlier patient pair was removed (Pt-84). RNA-seq counts were saved as DGELists (Robinson et al., 2010). Genes with less than 10 counts were filtered followed by trimmed mean of M values (TMM) normalization (Robinson and Oshlack, 2010) and variance modeling using voom (Law et al., 2014).

[4] = test system: U-87MG cells; assay: Wound healing (migration) assay with Ctrl and IL4I1-expressing glioblastoma cells; type: cell-based, human; settings: ectopically IL4I1-expressing U-87MG cells, 1 μM SR1, FIG. 3C
Experimental: Cells were seeded in 2-well cell culture inserts (ibidi, 80209) placed in 24-well plates. For U-87MG cells, as well as Ctrl and IL4I1-expressing U-87MG cells, 3×10^4 cells in 100 μL medium per well of cell culture insert were seeded. In the case of Ctrl and IL4I1-expressing U-251MG cells, 4×10^4 in 100 μL medium per well of cell culture insert were seeded. Cells were incubated for 16 h, inserts were removed and 1 mL of complete DMEM medium was added to each well of the plate. Cell migration was monitored by taking pictures at indicated time points, until gap (500 μm+/−100 μm) was covered by cells. In the case where U-87MG cells were treated with I3P or SR1, treatments were applied at the time of seeding the cells in the 2 well cell culture inserts. In addition, after 16 h incubation time and insert removal, 1 mL of complete DMEM medium containing treatments was applied to cells and kept throughout the assay. For each independent experiment, 3 pictures per well were taken and each condition was carried out at least in 3 wells. Pictures were taken with an ECLIPSE Ti-E/B inverted microscope (Nikon) with the 4×objective and using the NIS Elements software version 4.13.04. Pictures were analyzed with TScratch software version 1.0 (Geback et al., 2009). Cell migration was assessed by calculating the percentage of covered area for each time point normalized to the area at the 0 h time point.

[5] = advanced melanoma patients, before vs after nivolumab, FIG. 8C, re-analysis of Riaz et al. 2017

Formation of KynA from I3P ([1]; data not shown): formed spontaneously
Formation of KynA from I3P in the presence of H2O2 ([1]; with H2O2, data not shown): enhanced
Compound: O=C(O)C(=O)Cc1c[nH]c2ccccc12 [I3P, Indole-3-pyruvic acid]

Compound: NS(=O)(=O)NCCNc1nonc1C(=NO)Nc1ccc(F)c(Br)c1 [epacadostat]
Clinical benefit in phase III trial [2]: failed

Compound: nivolumab: anti-PD-1 monoclonal antibody (mAb) nivolumab
AHR activation (AHR signature) ([3]; advanced melanoma patients after nivolumab, FIG. 8D): resulted in AHR activation
Hallmark of cancer gene set enrichment ([3]; advanced melanoma patients before vs on Nivolumab therapy, FIG. 10): strong upregulation of inflammatory hallmark gene signatures
IDO1 expression [3, 5]: induced
IL4I1 expression [3, 5]: induced
IL4I1 expression ([3]; advanced melanoma patients, before vs after nivolumab, FIG. 8C, re-analysis of Riaz et al. 2017, listed as Nivolumab): higher expression of IL4I1
IL4I1 expression in ipilimumab-naïve patients ([3]; ipilimumab-naïve advanced melanoma patients, response to nivolumab, FIG. 8E): significant IL4I1 increase

Compound: CC(C)n1cnc2c(NCCc3ccc(O)cc3)nc(-c3csc4ccccc34)nc21 [SR1]
IL4I1-mediated motility of AHR-proficient cells [4]: reversed
